Experimental findings from paper PMC7754465, “Multiparameter Kinetic Analysis for Covalent Fragment Optimization by Using Quantitative Irreversible Tethering (qIT)” (Chembiochem, 2020) are described below.

Assay [1] can be described thus: qIT: rate of reaction with glutathione (intrinsic reactivity). Conditions: fragment 0.5 mM, glutathione 5 μM. Type of assay: physicochemical. The method, then: Previously we described a fluorescence‐based platform for screening cysteine‐targeting covalent fragments called quantitative irreversible tethering (qIT). ^[19] The method measures and compares the rate of reactions of individual fragments with the protein‐of‐interest (POI) and GSH (Figure 2a and b).
Figure 2 Comparison of previous and current applications of Quantitative irreversible tethering (qIT). a) Overview of rate determination. A cysteine‐containing biomolecule is treated with covalent fragments under pseudo‐first‐order conditions. Reaction progress is followed by discrete measurement of free cysteine concentration by using the fluorogenic probe CPM, and rate constants (k obs) are derived from exponential regression analysis. b) Comparison of the reactivity profile of each fragment with the POI and GSH typically classes them as unreactive, reactive but non‐selective or reactive and selective. c) Quantification of kinetic POI/GSH selectivity facilitates hit identification. d) The observed rate of reaction between the POI and hit fragment is determined at a range of ligand concentrations by using qIT. Subsequent hyperbolic regression analysis is used to derive K i and k inact to facilitate comprehensive covSAR analysis. […]

Assay [2] has as its target T1, Cdk2(ES) = Cdk2(F80C,C177A) (Homo sapiens, UniProt P24941, C177A/F80C).
T1 construct: GST (N, cleaved yes); made in house; host or cells: E. coli Tuner(DE3)
Description: quantitative irreversible tethering (qIT): rate of cysteine modification of Cdk2(ES). In kind it is binding. As to conditions: for kinact/KI at 500 µM: Cdk2(ES) 5 μM, read-out: Cdk2(ES): kobs/[I]; for covalent SAR by REF-based qIT analysis: compared with acrylamide 1 or parent analogue. The method, then:
Figure 2 Comparison of previous and current applications of Quantitative irreversible tethering (qIT). a) Overview of rate determination. A cysteine‐containing biomolecule is treated with covalent fragments under pseudo‐first‐order conditions. Reaction progress is followed by discrete measurement of free cysteine concentration by using the fluorogenic probe CPM, and rate constants (k obs) are derived from exponential regression analysis. b) Comparison of the reactivity profile of each fragment with the POI and GSH typically classes them as unreactive, reactive but non‐selective or reactive and selective. c) Quantification of kinetic POI/GSH selectivity facilitates hit identification. d) The observed rate of reaction between the POI and hit fragment is determined at a range of ligand concentrations by using qIT. Subsequent hyperbolic regression analysis is used to derive K i and k inact to facilitate comprehensive covSAR analysis.
Therefore, we set out to develop novel classes of electrophile sensitive kinase inhibitors using a covalent fragment approach. Accordingly, we screened a 138‐member library of diverse cysteine‐reactive fragments at 500 μM against Cdk2(ES) and GSH by using the qIT platform and monitored the kinetics of cysteine‐modification over 24 hours. […] Using three standard deviations over the geometric mean REF as the statistical cut‐off for defining hit fragments (REF >27.9) yielded two acrylamide fragments, tetrahydroquinoline 1 (REF=81) and pyrimidine S1 (REF=64) for further investigation (Figures 3c and S2). […]
D. Rate determination by qIT
Reaction-plate setup: Each well of a 96-well PCR plate was charged with 60–100 µL of target thiol (GSH or protein, 10 µM) and 4% w/v TCEP-agarose beads in 100 mM phosphate buffer (pH 7.5 or 8) and cooled to 4 °C. Reactions were started by addition of an equal volume of pre-cooled electrophile solution (1 mM, 2% DMSO) in 0.1 M phosphate buffer (final concentra-tion: thiol = 5 µM, electrophile = 0.5 mM, 2% w/v TCEP-agarose beads), with a minimum of 4 wells per plate used as DMSO/thiol only controls. After mixing, TCEP-agarose was pelleted by centrifugation (1,300 rpm, 1 min) and the plate incu-bated at 4 °C. CPM Quench: At a series of time points (typically around 0.25, 0.5, 1, 2, 6, 24, 48, 72 and 120 hours after reac-tion initiation), 3 µL aliquots of each reaction were quenched into a 384-well fluorescence plate (Corning – black, NBS) where each well was charged with 27 µL of CPM solution (1.39 µM) in 100 mM phosphate buffer (pH 7.5) (final concentration: thiol = 0.5 µM, CPM = 1.25 µM). Quenching was typically performed in duplicate and fluorescence plates were incubated at room temperature for 60 minutes before fluorescence intensity (excitation/emission: 384/470 nm) was measured on an EnVisionTM plate reader. Analysis: All analysis was performed using Prism 8.0 software (GraphPad). For each time point, the fluorescence of each reaction was normalized relative Cdk2(ES)/GSH only control = maximum signal, DMSO only = minimum signal. The normalized fluorescence for each reaction was plotted against time. A one phase exponential decay was fitted to each plot (Constraints: Y(0) > 0.8; 0 < plateau = 0), yielding a pseudo first-order rate constant.
Cdk2 mutations were introduced by PCR and cloned into pGEX6P1 Cdk2 (552), a gift from Jonathon Pines (Addgene plasmid # 61845) used to express GST-Cdk2(WT). GST-Cdk2(ES) = GST-Cdk2(F80C,C177A). All constructs were verified by se-quencing. pGEX6P1 cyclin A2 (amino acids 173-432) was generated by PCR and restriction digestion. GST-CAK1 was con-structed by PCR amplification of S.cerevisiae genomic DNA and the product cloned into pKEG-KG. All protein expression was performed using an adapted autoinduction protocol:[8] Plasmids were transformed into E. coli Tuner(DE3) and cultures grown in autoinduction media at 37 °C until OD600 = 0.9. The cultures were then incubated at 18 °C for a further 40 hours before […]

For another assay, the target named is T2, Cdk2(ES) (Homo sapiens, UniProt P24941, C177A/F80C).
T2 construct: GST (N, cleaved yes); made in house; host or cells: E. coli Tuner(DE3)
Description: concentration-dependent qIT with hyperbolic regression (Ki, kinact). Type of assay: binding. Conditions: for kinact/KI / Ki / kinact: acrylamide 25-500 μM, Cdk2(ES) 5 μM; for Ki / kinact: hyperbolic fit of kobs. The method, then:
Next we sought to carry out comprehensive kinetic analysis of the covalent binding to better understand the covSAR trends. Accordingly, the concentration dependency for the rate of reaction between Cdk2(ES) and key acrylamides 1, 6, 9 and 11 were determined using qIT (Figure 7c). To maintain pseudo‐first‐order reaction kinetics and stay within the solubility limits of the fragments, ligands were titrated from 25 to 500 μM. […] Indeed, comparing the binding conformations of the merged (9 and 11) and parent (1 and 6) fragments, we observe a subtle shift in the position of the core scaffolds and the orientation of the acrylamide link that likely explains the jump in potency that resulted from fragment merging. Overall, comparing acrylamides 9 and 11, we observe in a 3.7‐fold increase in k inact/K i and a 4.3‐fold increase in REF, and the consistency between these two orthogonal metrics of covalent fragment potency is encouraging for future applications of qIT to covalent fragment optimization.
H. Intact-protein mass spectrometry
Protein-mass data were obtained on a Waters micromass LC-TOF mass spectrometer in positive ion mode using electrospray ionization. Samples were chromatographed using an Acquity UPLC protein BEH C4 column (2.1 mm × 50 mm, 2.7 µm) with a flow rate of 30 µL/min. The injection volume was 5 µL of protein solution (5 µM) in 30 mM ammonium bicarbonate buffer con-taining 0.5% formic acid and 20% MeOH. The gradient used was 100% mobile phase A (0.1% formic acid in water/MeOH (19:1)) ramping linearly to 90% mobile phase B (0.1% formic acid in MeOH) over 5 minutes. The spectra were acquired from 500 to 2500 Da and deconvolution was performed with MassLynx (Waters), using the maximum entropy algorithm, over a mass range of […] with a mass step of 0.75. […]
Cdk2(WT) or Cdk2(ES) (1 mg) was sequentially incubated with aliquots of CAK1 (3 × 0.05 mg) at r.t. for 4 hours at a time in 1.5 mL of a 30 mM Tris/HCl buffer (pH 7.5) containing 10 mM MgCl2, 10 mM ATP and 3 mM DTT. As CAK1 appeared to be-come rapidly inactivated in the presence of pCdk2, three repetitions were required to drive the reaction to completion. The resulting solution was incubated with 50 µL of glutathione-Sepharose beads and filtered to remove remaining CAK1.
Kinase assays were performed by coupling the conversion of ATP into ADP to the oxidation of NADH (Abs = 340 nm) into NAD+, mediated by lactate dehydrogenase (LDH) and pyruvate kinase (PK). WT, mutant or ligand-conjugated pCdk2 (12.5 or 50 nM) was preincubated with Cyclin A2 (20 nM) in a buffer containing 50 mM Tris/HCl, 10 mM MgCl2, 5 mM DTT, 1 mM phosphoenolpyruvate, 0.24 mM NADH, 10 U mL-1 LDH, 14 U mL-1 PK and 5% DMSO at 37 °C for 30 minutes. Reactions were initiated by addition of 0.5 mM ATP and 0.24 mM substrate peptide (PKTPKKAKKL) and the absorbance at 340 nm was moni-tored for two hours. Assays were conducted at 37 °C and carried out in clear 384-well plates (Nunc) using a SpectraMax i3x plate reader (Molecular Devices) with a final volume of 20 µL in each well. After plotting Abs 340 against time, enzyme velocity was measured from the gradient during the linear phase of product accumulation.
Q. Concentration dependent qIT
The rate of reaction (kobs) for the reaction between each acrylamide (25, 50, 125, 250 and 500 µM) with Cdk2(ES) (5 µM) was determined us qIT (see D. Rate Determination by qIT) in duplicate. The average kobs was plotted against acrylamide concen-tration and hyperbolic regression analysis performed using Prism 8.0 software (GraphPad) to derive kinact and Ki.

Setting [3] is: acrylamide 11 compared with acrylamide 9.

Consider `C=CC(=O)N1CCn2c1nc1ccccc12` [compound 2], for which, in assay [1], the “GSH: kobs/[I]” value came to 5.34 M⁻¹ s⁻¹. In addition, in assay [2] (fragment 0.5 mM), the kinact/KI at 500 µM turned out to be 0.68 M⁻¹ s⁻¹.
As to `C=CC(=O)N1CCCc2cc(C(=O)O)ccc21` [compound 3], in assay [2], the “covalent SAR by REF-based qIT analysis” value is reported as “complete loss of activity”.
Turning to `C=CC(=O)N1CCCc2cc(C(N)=O)ccc21` [compound 4], in assay [2], the “covalent SAR by REF-based qIT analysis” value is listed as “complete loss of activity”.
With `C#CCNC(=O)c1ccc2c(c1)CCCN2C(=O)C=C` [compound 5], in assay [2], the “covalent SAR by REF-based qIT analysis” value is “well tolerated”.
On to `C=CC(=O)N1CCN(C(C)=O)c2ccccc21` [compound 7], for which the “covalent SAR by REF-based qIT analysis” value in assay [2] is listed as “loss of activity”.
The same measure, in the same setting: under `C=CC(=O)N1CCc2cc(C(=O)OC)ccc21` [compound 8] stands “tenfold loss in REF”.
Consider `C=CC(=O)N1CCN(CC)c2cc(C(=O)OC)ccc21` [compound 9], for which the kinact/KI at 500 µM in assay [2] (fragment 0.5 mM) stood at 8.48 M⁻¹ s⁻¹. For the same compound, in assay [2] (qIT), the “rate of reaction with Cdk2(ES) relative to acrylamide 1” value is listed as “six times faster than acrylamide 1”. In addition, the “rate enhancement factor (REF)” value in assay [2] (rate with Cdk2(ES) relative to rate with GSH, fragment 0.5 mM, thiol 5 μM) is 182. Also, on Cdk2(ES), the kinact/KI came to 4.76 M⁻¹ s⁻¹, the Ki is 416 µM and the maximal inactivation rate constant (kinact) came out at 0.00198 s⁻¹.
Regarding `C=CC(=O)N1CCN(C)c2cc(C(=O)OC)ccc21` [compound 10], the “covalent SAR by REF-based qIT analysis” value in assay [2] is reported as “less Cdk2(ES) selective”. In assay [2] (fragment 0.5 mM), the kinact/KI at 500 µM was 1.91 M⁻¹ s⁻¹.
Regarding `C=CC(=O)N1CCN(CC2CC2)c2cc(C(=O)OC)ccc21` [compound 11], the “fold increase in REF” value in assay [2] (setting [3]) is 4.3 fold. For the same compound, the “covalent SAR by REF-based qIT analysis” value in assay [2] is “significant improvement in REF”. The kinact/KI at 500 µM in assay [2] (fragment 0.5 mM) turned out to be 19.5 M⁻¹ s⁻¹. Also, the “fold increase in kinact/Ki” value at Cdk2(ES) (setting [3]) stood at 3.7 fold. On Cdk2(ES), the kinact/KI is 17.7 M⁻¹ s⁻¹, the inhibitory constant (Ki) was 102 µM and the kinact was 0.00181 s⁻¹.

In general, Ki refers to a measure of affinity in units of concentration, obtained from inhibition or displacement. A high value points to lower affinity. A word on the kinact: it is the rate constant of inactivation at saturating inhibitor.
